Measured values taken from PubChem BioAssay (NCI).
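96-well plates; 48 h exposure; 5 concentrations. Endpoints by linear interpolation between flanking doses. Not reached: highest tested concentration assigned. GI50 = concentration required for 50% inhibition of growth. TGI: concentration producing complete growth inhibition.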

Assays:
Test in all cases: NCI-60 cell line screen, 48 h
[1] = test system: OVCAR-8 ovarian
[2] = test system: K-562 leukemia
[3] = test system: UACC-62 melanoma
[4] = test system: KM12 colon
[5] = test system: HOP-92 NSCLC
[6] = test system: DLD-1 colon
[7] = test system: OVCAR-4 ovarian
[8] = test system: U251 CNS
[9] = test system: SW-620 colon

SMILES	TGI [1] [µM]	TGI [2] [µM]	TGI [3] [µM]	TGI [4] [µM]	TGI [5] [µM]	TGI [6] [µM]	TGI [7] [µM]	TGI [8] [µM]	TGI [9] [µM]	GI50 [1] [µM]	GI50 [2] [µM]	GI50 [3] [µM]	GI50 [4] [µM]	GI50 [5] [µM]	GI50 [7] [µM]	GI50 [8] [µM]	GI50 [9] [µM]
C/C(=N\[N+](C)(C)C)C(c1ccccc1)C1(c2ccccc2)C(c2ccccc2)=C1c1ccccc1 (configuration not stated)	> 100	> 100	> 100	> 100	> 100	> 100	> 100	> 100	> 100	–	–	–	–	–	–	–	–
COc1ccc(C2c3cc4c(cc3OC(O)(CO)C2C(=O)O)OCO4)c(OC)c1OC (configuration not stated) (tested in a mixture with another compound)	> 100	> 100	> 100	–	> 100	> 100	> 100	> 100	> 100	–	–	–	–	–	–	–	–
Nc1nc(F)nc2c1ncn2C1OC(COP(=O)(O)O)C(O)C1O (configuration not stated)	196	1070	247	900	71.8	> 1080	987	> 1250	675	–	–	–	–	–	–	–	–
COc1ccc2c(c1)C(=O)c1c-2c(N2CCN(C(=O)CN(C)C)CC2)nc2ccccc12	> 100	> 100	37.3	83.1	24.2	–	29.5	30.6	26.3	24.7	9.17	15.3	25.4	5.69	13	14.9	10.3
C=C1C(=O)O[C@H]2[C@H]1CC/C(COC(=O)N[C@@H](Cc1c[nH]c3ccccc13)C(=O)OC)=C\CC[C@@]1(C)O[C@@H]21	10.3	5.18	2.84	15.6	2.98	–	5.62	7.32	3.67	2.62	0.362	1.38	4.11	1.42	2.03	2.42	1.47
OCC1OC(O)C(N=Cc2ccc3c(c2)OCO3)C(O)C1O (configuration not stated)	> 100	> 100	> 100	> 100	> 100	–	> 100	> 100	> 100	–	–	–	–	–	–	–	–
c1cncc(-c2cc(-c3cc(-c4cccnc4)n[nH]3)[nH]n2)c1	> 100	> 100	> 100	> 100	> 100	–	> 100	> 100	> 100	–	–	–	–	–	–	–	–
N#C/C(=C\c1ccc(Br)cc1)n1nnc2cc(F)c(F)cc21	3.99	> 100	3	3.74	4.15	–	6.09	3.06	3.32	1.69	2	1.46	1.78	1.57	1.95	1.6	1.55
CNC(=O)c1ccc(Nc2nc(OC3CCCC3)c3c(-c4ccc5nc(C)oc5c4)c[nH]c3n2)c(OC)c1	> 100	> 100	> 100	> 100	> 100	–	> 100	> 100	> 100	0.6	0.746	2.58	9.47	2.54	5.59	15.3	0.121
CN(C)c1ccc2[nH]c(O)c(C=Nc3ccc(S(N)(=O)=O)cc3)c2c1	> 25	> 25	> 25	> 25	> 25	–	> 25	> 25	> 25	> 25	> 25	> 25	1.15	> 25	> 25	> 25	> 21.9
Cc1cc(S(=O)(=O)/N=C(\N)n2nc(C)c(C)c2C)c(SCc2ccccc2)cc1Cl	> 100	> 100	> 100	> 100	> 100	–	> 100	> 100	> 100	> 100	4.15	> 100	9.47	3.17	19.7	7.47	72.7
O=C1C=CC(=O)N1c1ccc2c(c1)Cc1cc(NC(=O)C(F)(F)F)ccc1-2	34.6	59.6	30.7	40.6	33.1	–	31.2	34	25.8	–	–	–	–	–	–	–	–
C[C@@H](Oc1cc(-c2cnn(C3CC4(CCNCC4)C3)c2)cnc1N)c1c(F)ccc(Cl)c1Cl	12.3	1.4	3.16	1.39	3.13	–	6.53	3.92	2.33	2.71	0.228	1.55	0.0399	0.54	1.79	1.6	0.537
